This note sets out measurements from patent US20080214445A1, “Method of Treating a Solid Tumor Disease Comprising Administering a Combination Comprising Imatinib and an Inhibitor of an Efflux Pump Active at the Blood Brain Barrier or Demethyl Imatinib” (priority 2005, published 2008).

The test system of one data set is Rat C6 glioma cells. Put plainly: Accumulation of CGP74588 into rat C6 glioma cells. It is filed as cell-based. The settings on record: for average fold increase of CGP74588 accumulation: 15 min pre-incubation, 1 min incubation with CGP74588, rat C6 cells. The procedure: Rat C6 glioma cells are used as a model for glioma in in vitro or in vivo studies, to investigate the effect of this combination on cell proliferation.
Rat C6 glioma cells are maintained in high glucose Dulbecco's modified medium supplemented with 10% fetal calf serum and […] L-Glutamine in a humidified atmosphere of 95% air-5% CO2. All accumulation assays are conducted on cultures at confluence. For this purpose, the cells are seeded on 24-well plates at a density of 100×10^3 cells/cm^2 and left to proliferate in culture medium for 48 h.
For competition assays, the cultures are pre-incubated with various concentrations of the different competitors for 15 min. […] The cellular accumulation of 1.5 μM CGP74588 is also studied in C6 cells that have been pre-incubated with hydroxyurea (1, 10, 100 or 1000 μM) for 48 h.

The next data set has as its target T1, BCRP (Homo sapiens, UniProt Q9UNQ0).
T1 sequence (Q9UNQ0 1-655): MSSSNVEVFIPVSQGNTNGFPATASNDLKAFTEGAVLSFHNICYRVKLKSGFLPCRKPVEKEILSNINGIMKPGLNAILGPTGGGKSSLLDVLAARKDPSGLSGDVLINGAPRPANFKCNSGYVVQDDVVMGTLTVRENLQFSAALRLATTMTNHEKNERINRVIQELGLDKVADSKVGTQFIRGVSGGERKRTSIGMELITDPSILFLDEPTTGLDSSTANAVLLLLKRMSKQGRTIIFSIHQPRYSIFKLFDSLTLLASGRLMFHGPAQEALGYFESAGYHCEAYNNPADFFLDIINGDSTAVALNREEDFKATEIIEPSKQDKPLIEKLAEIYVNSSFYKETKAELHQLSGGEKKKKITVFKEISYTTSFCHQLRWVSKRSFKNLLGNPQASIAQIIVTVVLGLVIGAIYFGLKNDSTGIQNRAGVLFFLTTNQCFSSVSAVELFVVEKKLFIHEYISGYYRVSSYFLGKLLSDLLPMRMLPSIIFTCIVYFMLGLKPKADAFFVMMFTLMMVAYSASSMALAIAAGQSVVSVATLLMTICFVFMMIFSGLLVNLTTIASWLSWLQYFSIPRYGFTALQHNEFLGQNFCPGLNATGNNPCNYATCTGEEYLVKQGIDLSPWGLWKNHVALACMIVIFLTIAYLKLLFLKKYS
Put plainly: BCRP efflux pump inhibition / transport.

The conditions of data set [1]: Hanover Wistar, rat, in vivo, iv.
Protocol: (§1) Blood, plasma, brain are collected for each animal.
(§2) All samples are analyzed for total radioactivity by liquid scintillation counting (LSC). In brief, 50 μL blood samples are successively mixed and incubated with 0.5 mL Soluene 350-isopropanol 1:1 (v/v), 0.2 mL H2O2 30% (overnight), 0.5 mL HCl 2N (20 min) and 5 mL IrgaSafe (Packard) (overnight). 50 μL plasma samples are successively mixed and incubated with 0.5 mL Soluene 350-isopropanol 1:1 (v/v) (overnight), 0.5 mL HCl 2N (20 min) and 5 mL IrgaSafe (overnight). 250 μL brain homogenate samples are treated by 2 mL Soluene 350 (overnight), 0.5 mL HCl 2N (20 min) and 17.5 mL Irgasafe (overnight). All samples are counted in Tricarb liquid scintillation analyzers (Packard).
(§3) All blood samples are spiked with 100 μL of water for hemolysis whereas all other samples are directly analyzed. […] The organic layer is separated and evaporated in a vacuum centrifuge. The residues are dissolved in 250 μL of acetonitrile-water (30:70 v/v) followed by 75 μl of n-hexane. […] The effluent is monitored by an UV-detector set at 270 nm.
For data set [2], the system named is P-glycoprotein and Breast-Cancer Resistance Protein (suggested by experiments in mdr1a1b(-/-) mice). Put plainly: in vivo. The settings on record: FVB, mouse.
A short description of another data set: in vivo. The following applies: Hanover Wistar, rat, iv, 12.5 mg/kg.
The conditions of data set [3]: FVB wild-type mice; co-perfusion of valspodar 10 μM with imatinib 0.5 μM.
A short description of data set [4]: Blood and brain pharmacokinetics in Hanover Wistar rats after intravenous [14C]STI571 with or without PSC833.
Protocol: as §1, §2, §3
The mark [5] stands for this setting: Concentration of STI571 in brain, Mean.
[6] abbreviates: Concentration of STI571 in brain, individual data.

Turning to `Cc1ccc(NC(=O)c2ccc(CN3CCNCC3)cc2)cc1Nc1nccc(-c2cccnc2)n1` [CGP74588, N-{5-[4-(piperazino-methyl)-benzoylamido]-2-methylphenyl}-4-(3-pyridyl)-2-pyrimidine-amine], the “accumulation in rat C6 cells” value in the data set with Rat C6 glioma cells (CGP74588 0.5-50 μM) is “concentration dependant”. Further, at BCRP, the BCRP inhibition result is recorded as “not” and the “transport by efflux pump” value was “dominated by BCRP”.
As to `Cc1ccc(NC(=O)c2ccc(CN3CCN(C)CC3)cc2)cc1Nc1nccc(-c2cccnc2)n1` [STI571, N-{5-[4-(4-methyl-piperazino-methyl)-benzoylamido]-2-methylphenyl}-4-(3-pyridyl)-2-pyrimidine-amine], the “time post dose at which brain Cmax is reached” value in data set [1] was determined as 15 min. In data set [2], the Km (usually the concentration of substrate that gives half-maximal velocity) lay in the range of 5 to 10 µM. For the same compound, in “in vivo”, the peak level (Cmax) was 893 ng/g and the time of peak concentration (Tmax) – broadly, the time from dosing to the highest level – was 15 min. In the data set “in vivo” (setting [5]), this compound had a concentration at 0.25 h of 893 ng/g, a concentration at 0.5 h of 533 ng/g, a concentration at 1 h of 550 ng/g and a concentration at 2 h of 333 ng/g. Further, in the data set “in vivo” (setting [5]), the concentration at 4 h is 115 ng/g and the concentration at 8 h was 38 ng/g. In “in vivo” (setting [6]), this compound had a concentration at 1 h of 540 ng/g, a concentration at 2 h of 402 ng/g, a concentration at 4 h of 102 ng/g and a concentration at 8 h of 52 ng/g.
For `COc1cc2c(cc1OC)CN(CCc1ccc(NC(=O)c3cccc4c(=O)c5cccc(OC)c5[nH]c34)cc1)CC2` [elacridar], the results for the “average fold increase of CGP74588 accumulation” value (from here on “average fold increase”) in the data set on Rat C6 glioma cells (inhibitor 1 μM) and in the data set on Rat C6 glioma cells (inhibitor 10 μM) were 1.7 fold and 2.3 fold, respectively.
In the case of `C/C=C/C[C@@H](C)C(=O)[C@H]1C(=O)N[C@@H](C(C)C)C(=O)N(C)CC(=O)N(C)[C@@H](CC(C)C)C(=O)N[C@@H](C(C)C)C(=O)N(C)[C@@H](CC(C)C)C(=O)N[C@@H](C)C(=O)N[C@H](C)C(=O)N(C)[C@@H](CC(C)C)C(=O)N(C)[C@@H](CC(C)C)C(=O)N(C)[C@@H](C(C)C)C(=O)N1C` [valspodar, [3′-desoxy-3′-oxo-MeBmt]^1-[Val]^2-Ciclosporin A], the “average fold increase” value was 1.7 fold with Rat C6 glioma cells (inhibitor 1 μM) and 2.3 fold with Rat C6 glioma cells (inhibitor 10 μM). In addition, the “effect on distribution of imatinib into the brain” value in data set [3] is “markedly enhance”. For the same compound, the “effect on the elimination slope of unchanged STI571 from brain to blood” value in data set [4] (12.5 mg/kg STI571 and 10 mg/kg PSC833 i.v.) is given as “does not significantly modify”. Moreover, in data set [4] (valspodar 10 mg/kg i.v. with imatinib 12.5 mg/kg i.v.), the “impact on the plasma pharmacokinetics of imatinib” value was “no significant impact”.
`Cl.Cl.Cl.O[C@@H](COc1cccc2ncccc12)CN1CCN(C2c3ccccc3[C@@H]3[C@H](c4ccccc42)C3(F)F)CC1` (stereo partly drawn) [zosuquidar, 1-[4-(1,1-difluor-1,1aR,6S,10bS-tetrahydrodibenzo[a,e]-cyclo-propa[c]cyclohepten-6-yl)piperazin-1-yl]-3-(chinolin-5-yloxy)-2(R)-propanol-trihydrochloride]: the figures for the “average fold increase” value with Rat C6 glioma cells (inhibitor 1 μM) and in the data set on Rat C6 glioma cells (inhibitor 10 μM) were 1.7 fold and 2.3 fold, respectively.
